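Compound exposure: 48 hours, 5 concentrations, 96-well plates. Abbreviation: GI50, concentration required for 50% inhibition of growth.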 Active and inactive are the calls of the source. Cut-off read from the data, not from the text of the source: active = GI50 up to about 1.1 µM and inactive = higher.
Experiments:
Assay in all cases: NCI tumour cell line growth inhibition, 48 h
Malme-3M = system: Malme-3M
UACC-62 = system: UACC-62
DU-145 = system: DU-145
NCI-H23 = system: NCI-H23
HCT-116 = system: HCT-116
PC-3 = system: PC-3
SF-295 = system: SF-295
SK-MEL-28 = system: SK-MEL-28
MDA-MB-231 = system: MDA-MB-231
MDA-N = system: MDA-N
EKVX = system: EKVX
ACHN = system: ACHN
SF-539 = system: SF-539
SR = system: SR
SF-268 = system: SF-268
OVCAR-4 = system: OVCAR-4
786-0 = system: 786-0
SK-MEL-5 = system: SK-MEL-5
HCC 2998 = system: HCC 2998

Row | SMILES | GI50 (Malme-3M) | GI50 (UACC-62) | GI50 (DU-145) | GI50 (NCI-H23) | GI50 (HCT-116) | GI50 (PC-3) | GI50 (SF-295) | GI50 (SK-MEL-28) | GI50 (MDA-MB-231) | GI50 (MDA-N) | GI50 (EKVX) | GI50 (ACHN) | GI50 (SF-539) | GI50 (SR) | GI50 (SF-268) | GI50 (OVCAR-4) | GI50 (786-0) | GI50 (SK-MEL-5) | GI50 (HCC 2998)
1 | CCO/C=N/C1=C(C#N)C(c2ccc(Cl)cc2)c2c(-c3ccccc3)nn(-c3ccccc3)c2O1 (centres undefined) | 12.3 µM (inactive) | 12.2 µM (inactive) | 16 µM (inactive) | 5.15 µM (inactive) | 7.5 µM (inactive) | 4.28 µM (inactive) | 7.43 µM (inactive) | 11.7 µM (inactive) | 21.6 µM (inactive) | 14.7 µM (inactive) | 13.9 µM (inactive) | 8.51 µM (inactive) | 6.14 µM (inactive) | 5.5 µM (inactive) | 7.87 µM (inactive) | 11.4 µM (inactive) | 10.2 µM (inactive) | > 10 µM (inactive) | 7.16 µM (inactive)
2 | C[C@]12CCC3c4ccc(O)cc4CC[C@H]3C1CC(=O)N(N)C2=O (some centres undefined) | > 100 µM (inactive) | > 100 µM (inactive) | > 100 µM (inactive) | > 100 µM (inactive) | > 100 µM (inactive) | > 100 µM (inactive) | > 100 µM (inactive) | > 100 µM (inactive) | > 100 µM (inactive) | > 100 µM (inactive) | 64.7 µM (inactive) | > 100 µM (inactive) | > 100 µM (inactive) | > 100 µM (inactive) | > 100 µM (inactive) | > 100 µM (inactive) | > 100 µM (inactive) | > 100 µM (inactive) | > 100 µM (inactive)
3 | CCNc1nc2c(ncn2C2CC(O)C(COP(=O)(O)O)O2)c(=O)[nH]1 (centres undefined) | > 100 µM (inactive) | > 100 µM (inactive) | > 100 µM (inactive) | > 100 µM (inactive) | > 100 µM (inactive) | > 100 µM (inactive) | > 100 µM (inactive) | > 100 µM (inactive) | > 100 µM (inactive) | > 100 µM (inactive) | > 100 µM (inactive) | > 100 µM (inactive) | > 100 µM (inactive) | 86.3 µM (inactive) | > 100 µM (inactive) | > 100 µM (inactive) | > 100 µM (inactive) | > 100 µM (inactive) | > 100 µM (inactive)
4 | CCCCCC(=O)OC[n+]1ccc(-c2c(COC(=O)NC(C)C)c(COC(=O)NC(C)C)c3n2CCC3)cc1 | > 100 µM (inactive) | 26.5 µM (inactive) | > 35.5 µM (inactive) | > 100 µM (inactive) | > 100 µM (inactive) | > 100 µM (inactive) | > 100 µM (inactive) | > 100 µM (inactive) | > 100 µM (inactive) | > 100 µM (inactive) | > 100 µM (inactive) | 50.9 µM (inactive) | > 100 µM (inactive) | 16.9 µM (inactive) | > 94.6 µM (inactive) | > 100 µM (inactive) | > 92 µM (inactive) | > 100 µM (inactive) | > 100 µM (inactive)
5 | CC(C)(C)[C@H]1CCC2(OCCO2)[C@](O)(CCCO)C1 | > 100 µM (inactive) | > 100 µM (inactive) | > 100 µM (inactive) | > 100 µM (inactive) | > 100 µM (inactive) | > 100 µM (inactive) | > 100 µM (inactive) | > 100 µM (inactive) | > 100 µM (inactive) | > 100 µM (inactive) | > 100 µM (inactive) | > 100 µM (inactive) | > 100 µM (inactive) | > 100 µM (inactive) | > 100 µM (inactive) | > 100 µM (inactive) | > 100 µM (inactive) | > 100 µM (inactive) | > 100 µM (inactive)
6 | CSC(=S)N/N=C/c1ccccc1 | 36.5 µM (inactive) | 37.4 µM (inactive) | 42.3 µM (inactive) | 33.5 µM (inactive) | 29.6 µM (inactive) | 97.9 µM (inactive) | 39.2 µM (inactive) | 94.2 µM (inactive) | > 100 µM (inactive) | 41.9 µM (inactive) | 24.4 µM (inactive) | 43.4 µM (inactive) | 56.6 µM (inactive) | 40.8 µM (inactive) | 40.1 µM (inactive) | 24.3 µM (inactive) | 39.4 µM (inactive) | 22.5 µM (inactive) | > 100 µM (inactive)
7 | O=C1OC(=O)C2C1C(c1ccccc1[N+](=O)[O-])C=C(c1ccco1)N2c1ccncc1 (centres undefined) | 25.1 µM (inactive) | 16.9 µM (inactive) | 7.01 µM (inactive) | 11.3 µM (inactive) | 1.83 µM (inactive) | 13.3 µM (inactive) | 10.3 µM (inactive) | 8.34 µM (inactive) | 13 µM (inactive) | 4.52 µM (inactive) | 15.2 µM (inactive) | 1.85 µM (inactive) | 4.65 µM (inactive) | 0.679 µM (active) | 10.3 µM (inactive) | 15.2 µM (inactive) | 1.91 µM (inactive) | 4.09 µM (inactive) | 1.86 µM (inactive)
8 | C/C(=N\NC(N)=S)C(CN1CCCCC1)C(C1=C(O)c2ccccc2OC1)c1ccccc1 (centres undefined) | > 100 µM (inactive) | > 100 µM (inactive) | > 100 µM (inactive) | > 100 µM (inactive) | > 100 µM (inactive) | > 100 µM (inactive) | > 100 µM (inactive) | > 100 µM (inactive) | > 100 µM (inactive) | > 100 µM (inactive) | > 100 µM (inactive) | > 100 µM (inactive) | > 100 µM (inactive) | > 100 µM (inactive) | > 100 µM (inactive) | 83 µM (inactive) | > 100 µM (inactive) | > 100 µM (inactive) | > 100 µM (inactive)
9 | CCOC(=O)C12CC(C)=C(C)CC1CCCc1ccccc12 (centres undefined) | 23 µM (inactive) | 21.9 µM (inactive) | 34 µM (inactive) | 28.4 µM (inactive) | 14.7 µM (inactive) | 18.1 µM (inactive) | 25.1 µM (inactive) | 30.8 µM (inactive) | 14.2 µM (inactive) | 26 µM (inactive) | 21.1 µM (inactive) | 18.8 µM (inactive) | 28.2 µM (inactive) | 23.8 µM (inactive) | 38.9 µM (inactive) | 32.5 µM (inactive) | 31.5 µM (inactive) | 21.5 µM (inactive) | 14.2 µM (inactive)
10 | COC(=O)c1c2c(cc3c1CC1(Cc4cc5c(cc4C1=O)CCC5)C3)CCC2 (centres undefined) | 32.9 µM (inactive) | 39.1 µM (inactive) | > 100 µM (inactive) | 40.7 µM (inactive) | 13.3 µM (inactive) | 6.68 µM (inactive) | 21.5 µM (inactive) | 63 µM (inactive) | > 100 µM (inactive) | 20.4 µM (inactive) | 56.1 µM (inactive) | 86.1 µM (inactive) | 97.7 µM (inactive) | > 10 µM (inactive) | 85.9 µM (inactive) | 34.3 µM (inactive) | 35.4 µM (inactive) | 10.5 µM (inactive) | 63 µM (inactive)
11 | c1ccc2c(c1)CCN2CCc1c[nH]c2ccccc12 | > 10 µM (inactive) | > 10 µM (inactive) | > 10 µM (inactive) | > 10 µM (inactive) | > 10 µM (inactive) | > 10 µM (inactive) | > 10 µM (inactive) | > 10 µM (inactive) | > 10 µM (inactive) | > 10 µM (inactive) | > 10 µM (inactive) | > 10 µM (inactive) | > 10 µM (inactive) | > 10 µM (inactive) | > 10 µM (inactive) | > 10 µM (inactive) | > 10 µM (inactive) | > 10 µM (inactive) | > 10 µM (inactive)

From ChEMBL document CHEMBL1201862, “PubChem BioAssay data set” (2004)
